Data as given in US20260274814A1, “THIENYL COMPOUNDS FOR THE TREATMENT OF A CENTRAL NERVOUS SYSTEM DISEASE OR DISORDER” (Coreterra Therapeutics, Inc., priority 2023, published 2026).
Where a name gives a salt, the structure may show the parent alone.

Tested on: mice
Experiment: Neuropharmacological Assay (SmartCube): automated behavioral signature of compound-treated mice compared with a database of reference drug classes
Format: in vivo
Details: for MED (minimal effective dose) / minimal effective dose: dose having 45% or more total activity in SmartCube, i.p., if only one dose was tested, that dose is shown; for AG / AN / AX / CE / HL / PS / SH / AD / AP / MS / UK: probability that activity matches this class of agents, 3.0 mg/kg i.p., 15 min before test; for minimal effective dose: Mus musculus, ip, read-out: MED (minimal effective dose)
Text: Neurosci. 2011 Sep. 9; 5: 103 (doi: 10.3389/fnins.2011.00103) (“Roberds”). As reported in Roberds, because psychiatric diseases generally result from disorders of cell-cell communication or circuitry, intact systems are useful in detecting improvement in disease-relevant endpoints. These endpoints are typically behavioral in nature, often requiring human observation and interpretation. To facilitate testing of multiple compounds for behavioral effects relevant to psychiatric disease, PsychoGenics, Inc. (Tarrytown, NY, “PGI”) developed SmartCube™ an automated system in which behaviors of compound-treated mice are captured by digital video and analyzed with computer algorithms. (D. Brunner et al. Drug Discov. Today 2002, 7:S107-S112). PGI Analytical Systems uses data from SmartCube™ to compare the behavioral signature of a test compound to a database of behavioral signatures obtained using a large set of diverse reference compounds. (The composition of the database as well as validation of the method is further described in Roberds). In this way, the neuropharmacological effects of a test compound can be predicted by similarity to major classes of compounds, such as antipsychotics, anxiolytics and antidepressants.
The SmartCube™ system produces an activity signature indicating the probability that the activity of the test compound at the administered dose matches a given class of neuropharmacological agents. (See, e.g., Roberds, FIGS. 2 and 3). The test compound is simultaneously compared against multiple classes of agents; thus, a separate probability is generated for each behavioral effect measured (e.g., anxiolytic activity, analgesic activity, etc.). In table 2 below, these probabilities are reported for each behavioral effect measured as described in Table 1 below.
Provided compounds were dissolved in a mixture of Pharmasolve™ (N-methyl-2-pyrrolidone), polyethylene glycol and propylene glycol, and were injected i.p. 15 min. before the behavioral test. For each compound, injections were administered at 3 different doses. For each behavioral effect measured, results for the 3.0 mg/kg dose are presented. The potency of many of the compounds in the table was also determined in the SmartCube™ system. Test compounds were routinely examined at dose levels of 0.3, 1, 3 and 10 mg per kg (mpk), although the dose range was increased or decreased, if necessary, to obtain a full dose response curve. A compound's minimal effective dose (MED) is a measure of the compound's potency. The MED was defined as the dose (in mpk) having 45% or more total activity in SmartCube. If only one dose was tested, that dose is shown in the MED column of Table 2 even though the dose is not known to be the MED.

CNC1CCc2c(csc2Cl)C1 (single isomer, unassigned) [Compound 58, 1-chloro-N-methyl-4,5,6,7-tetrahydro-2-benzothiophen-5-amine hydrochloride]
MED (minimal effective dose): 1.0 mpk | AG: ND (^ <4%) | AN: ND (^ <4%) | AX: ND (^ <4%) | CE: ND (^ <4%) | HL: ND (^ <4%) | PS: ND (^ <4%) | SH: ND (^ <4%) | AD (hydrochloride, 3 mg/kg): + (≥4%) | AP (hydrochloride, 3 mg/kg): +++ (≥49%) | MS (hydrochloride, 3 mg/kg): + (≥4%) | UK (hydrochloride, 3 mg/kg): ND (^ <4%)

CNC1CCc2c(Cl)sc(Cl)c2C1 (single isomer, unassigned) [Compound 59, 1,3-dichloro-N-methyl-4,5,6,7-tetrahydro-2-benzothiophen-5-amine hydrochloride]
minimal effective dose: 3 mg/kg | AD: ND (^ <4%) | AG: ND (^ <4%) | AN: ND (^ <4%) | CE: ND (^ <4%) | HL: ND (^ <4%) | MS: ND (^ <4%) | PS: ND (^ <4%) | SH: ND (^ <4%) | UK: ND (^ <4%) | AP (hydrochloride, 3 mg/kg): +++ (≥49%) | AX (hydrochloride, 3 mg/kg): ++ (≥24%)

CNC1CCc2c(Cl)sc(Cl)c2C1 (single isomer, unassigned) [Compound 60, 1,3-dichloro-N-methyl-4,5,6,7-tetrahydro-2-benzothiophen-5-amine hydrochloride]
MED (minimal effective dose): 3.0 mpk | AD: ND (^ <4%) | AG: ND (^ <4%) | AN: ND (^ <4%) | CE: ND (^ <4%) | HL: ND (^ <4%) | MS: ND (^ <4%) | PS: ND (^ <4%) | SH: ND (^ <4%) | UK: ND (^ <4%) | AP (hydrochloride, 3 mg/kg): + (≥4%) | AX (hydrochloride, 3 mg/kg): +++ (≥49%)

CNC1CCc2csc(C(F)(F)F)c2C1 (single isomer, unassigned) [Compound 61, N-methyl-3-(trifluoromethyl)-4,5,6,7-tetrahydro-2-benzothiophen-5-amine hydrochloride]
MED (minimal effective dose) (hydrochloride): 3.0 mpk | AG: ND (^ <4%) | AN: ND (^ <4%) | AX: ND (^ <4%) | CE: ND (^ <4%) | HL: ND (^ <4%) | MS: ND (^ <4%) | PS: ND (^ <4%) | SH: ND (^ <4%) | UK: ND (^ <4%) | AD (hydrochloride, 3 mg/kg): + (≥4%) | AP (hydrochloride, 3 mg/kg): +++ (≥49%)

CNC1CCc2csc(C(F)(F)F)c2C1 (single isomer, unassigned) [Compound 62, N-methyl-3-(trifluoromethyl)-4,5,6,7-tetrahydro-2-benzothiophen-5-amine hydrochloride]
MED (minimal effective dose) (hydrochloride): 1 mpk | AG: ND (^ <4%) | AN: ND (^ <4%) | AX: ND (^ <4%) | CE: ND (^ <4%) | HL: ND (^ <4%) | MS: ND (^ <4%) | PS: ND (^ <4%) | SH: ND (^ <4%) | UK: ND (^ <4%) | AD (hydrochloride, 3 mg/kg): ++++ (≥74%) | AP (hydrochloride, 3 mg/kg): + (≥4%)

CNC1CCc2c(csc2C(F)(F)F)C1 (single isomer, unassigned) [Compound 63, N-methyl-1-(trifluoromethyl)-4,5,6,7-tetrahydro-2-benzothiophen-5-amine hydrochloride]
MED (minimal effective dose) (hydrochloride): 1.0 mpk | AD: + (≥4%) | AG: ND (^ <4%) | AN: ND (^ <4%) | AP: ND (^ <4%) | CE: ND (^ <4%) | HL: ND (^ <4%) | PS: ND (^ <4%) | SH: ND (^ <4%) | AX (hydrochloride, 3 mg/kg): +++ (≥49%) | MS (hydrochloride, 3 mg/kg): + (≥4%) | UK (hydrochloride, 3 mg/kg): ND (^ <4%)

CNC1CCc2c(csc2C(F)(F)F)C1 (single isomer, unassigned) [Compound 64, N-methyl-1-(trifluoromethyl)-4,5,6,7-tetrahydro-2-benzothiophen-5-amine hydrochloride]
MED (minimal effective dose) (hydrochloride): 10 mpk | AD: + (≥4%) | AG: ND (^ <4%) | AN: ND (^ <4%) | AP: ND (^ <4%) | CE: ND (^ <4%) | HL: ND (^ <4%) | PS: ND (^ <4%) | SH: ND (^ <4%) | AX (hydrochloride, 3 mg/kg): ND (^ <4%) | MS (hydrochloride, 3 mg/kg): ND (^ <4%) | UK (hydrochloride, 3 mg/kg): ++ (≥24%)

Cc1csc2c1CCC(N)C2 (single isomer, unassigned) [Compound 65, 3-methyl-4,5,6,7-tetrahydrobenzothiophen-6-amine hydrochloride]
MED (minimal effective dose) (hydrochloride): 3 mpk | AG: ND (^ <4%) | AN: ND (^ <4%) | AX: ND (^ <4%) | CE: ND (^ <4%) | MS: ND (^ <4%) | SH: ND (^ <4%) | UK: ND (^ <4%) | AD (hydrochloride, 3 mg/kg): +++ (≥49%) | AP (hydrochloride, 3 mg/kg): ND (^ <4%) | HL (hydrochloride, 3 mg/kg): + (≥4%) | PS (hydrochloride, 3 mg/kg): + (≥4%)

Cc1csc2c1CCC(N)C2 (single isomer, unassigned) [Compound 66, 3-methyl-4,5,6,7-tetrahydrobenzothiophen-6-amine hydrochloride]
MED (minimal effective dose) (hydrochloride): 1 mpk | AG: ND (^ <4%) | AN: ND (^ <4%) | AX: ND (^ <4%) | CE: ND (^ <4%) | MS: ND (^ <4%) | SH: ND (^ <4%) | UK: ND (^ <4%) | AD (hydrochloride, 3 mg/kg): ND (^ <4%) | AP (hydrochloride, 3 mg/kg): ++++ (≥74%) | HL (hydrochloride, 3 mg/kg): ND (^ <4%) | PS (hydrochloride, 3 mg/kg): ND (^ <4%)

Cc1sc2c(c1C)CCC(N)C2 (single isomer, unassigned) [Compound 67, 2,3-dimethyl-4,5,6,7-tetrahydrobenzothiophen-6-amine hydrochloride]
minimal effective dose: 3 mg/kg | AG: ND (^ <4%) | AN: ND (^ <4%) | AP: ND (^ <4%) | AX: ND (^ <4%) | CE: ND (^ <4%) | MS: ND (^ <4%) | PS: ND (^ <4%) | SH: ND (^ <4%) | UK: ND (^ <4%) | AD (hydrochloride, 3 mg/kg): +++ (≥49%) | HL (hydrochloride, 3 mg/kg): ND (^ <4%)

Cc1sc2c(c1C)CCC(N)C2 (single isomer, unassigned) [Compound 68, 2,3-dimethyl-4,5,6,7-tetrahydrobenzothiophen-6-amine hydrochloride]
MED (minimal effective dose): 3 mpk | AG: ND (^ <4%) | AN: ND (^ <4%) | AP: ND (^ <4%) | AX: ND (^ <4%) | CE: ND (^ <4%) | MS: ND (^ <4%) | PS: ND (^ <4%) | SH: ND (^ <4%) | UK: ND (^ <4%) | AD (hydrochloride, 3 mg/kg): ++ (≥24%) | HL (hydrochloride, 3 mg/kg): + (≥4%)

CNC1CCc2scc(C)c2C1.Cl (single isomer, unassigned) [Compound 69, N, 3-dimethyl-4,5,6,7-tetrahydrobenzothiophen-5-amine hydrochloride]
MED (minimal effective dose) (hydrochloride): 3 mpk | AD: ND (^ <4%) | AG: ND (^ <4%) | AN: ND (^ <4%) | CE: ND (^ <4%) | HL: ND (^ <4%) | MS: ND (^ <4%) | PS: ND (^ <4%) | SH: ND (^ <4%) | AP (hydrochloride, 3 mg/kg): ND (^ <4%) | AX (hydrochloride, 3 mg/kg): ND (^ <4%) | UK (hydrochloride, 3 mg/kg): +++ (≥49%)

CNC1CCc2scc(C)c2C1.Cl (single isomer, unassigned) [Compound 70, N, 3-dimethyl-4,5,6,7-tetrahydrobenzothiophen-5-amine hydrochloride]
MED (minimal effective dose) (hydrochloride): 1 mpk | AD: ND (^ <4%) | AG: ND (^ <4%) | AN: ND (^ <4%) | CE: ND (^ <4%) | HL: ND (^ <4%) | MS: ND (^ <4%) | PS: ND (^ <4%) | SH: ND (^ <4%) | AP (hydrochloride, 3 mg/kg): +++ (≥49%) | AX (hydrochloride, 3 mg/kg): + (≥4%) | UK (hydrochloride, 3 mg/kg): ND (^ <4%)
